From patent US20050074879A1, “Antisense oligonucleotide modulation of STAT3 expression” (priority 2000, published 2005)
Oligonucleotides are written 5' to 3', each unit as a sugar letter and its base; * is a phosphorothioate linkage, no mark a phosphodiester; rarer units and linkages stand in square brackets, end groups in braces. Plain capitals give the bases only. e = 2'-O-(2-methoxyethyl) (MOE); [5mC] = 5-methylcytosine; d = 2'-deoxy (DNA)

Legend:
Type in all cases: cell-based
[1] = test system: Human STAT3 mRNA; test: Human STAT3 mRNA dose response in T-24 cells, real-time PCR with PPS 199 (Table 18); settings: 16 hours, − decrease, + increase relative to untreated control
From the text: The transitional cell bladder carcinoma cell line T-24 was obtained from the American Type Culture Collection (ATCC) (Manassas, Va.). T-24 cells were routinely cultured in complete McCoy's 5A basal media (Gibco/Life Technologies, Gaithersburg, Md.) supplemented with 10% fetal calf serum (Gibco/Life Technologies, Gaithersburg, Md.), penicillin 100 units per mL, and streptomycin 100 micrograms per mL (Gibco/Life Technologies, Gaithersburg, Md.). Cells were routinely passaged by trypsinization and dilution when they reached 90% confluence. Cells were seeded into 96-well plates (Falcon-Primaria #3872) at a density of 7000 cells/well for use in RT-PCR analysis.
Control oligonucleotides used were ISIS 129695 ([…], SEQ ID NO: 391), ISIS 129694 ([…] SEQ ID NO: 392), ISIS 129690 ([…] SEQ ID NO: 393), ISIS 129686 ([…] SEQ ID NO: 394), ISIS 116847 ([…], SEQ ID NO: 395) and ISIS 113529 ([…] SEQ ID NO: 396). These are universal scrambled control oligonucleotides.
(§1) T-24 cells were treated with 18.75, 37.5, 75, or 150 nM of oligonucleotide mixed with 3 ug/mL LIPOFECTIN per 100 nM oligonucleotide as described by other examples herein. Untreated cells served as controls. Following 16 hours of treatment, RNA was prepared from cells for subsequent real-time PCR analysis.
Human STAT3 mRNA expression levels were quantitated by real-time PCR using primer probe set PPS 199 and gene target quantities were normalized using Ribogreen as described in other examples herein. A “−” or “+” designation indicates a decrease or increase of STAT 3 mRNA expression, respectively, relative to untreated control cells.

[2] = test system: Human STAT3 mRNA; test: Human STAT3 mRNA dose response in T-24 cells, real-time PCR with PPS 2033 (Table 19); settings: 16 hours, − decrease, + increase relative to untreated control
Procedure: The dose-response was repeated in T-24 cells and gene target quantities were measured using a different primer-probe set, called PPS 2033 herein. PPS 2033 comprises probes and primers to human STAT3 were designed to hybridize to a human STAT3 sequence, using published sequence information (incorporated herein as SEQ ID NO: XXX). For PPS 2033 the PCR primers were: forward primer: GAGGCCCGCCCAACA (SEQ ID NO: 397) reverse primer: […] (SEQ ID NO: 398) and the PCR probe was: FAM-CTGCCTAGATCGGC-TAMRA (SEQ ID NO: 399) where FAM is the fluorescent reporter dye and TAMRA is the quencher dye. Gene target quantities obtained by real time RT-PCR are normalized by quantifying total RNA using RiboGreen™ (Molecular Probes, Inc. Eugene, Oreg.). Control oligonucleotides used were ISIS 129695 (SEQ ID NO: 391), ISIS 129694 (SEQ ID NO: 392), ISIS 129690 (SEQ ID NO: 393), ISIS 129686 (SEQ ID NO: 394), ISIS 116847 (SEQ ID NO: 395) and ISIS 113529 (SEQ ID NO: 396).
as §1
Human STAT3 mRNA expression levels were quantitated by real-time PCR using primer probe set PPS 2033 and gene target quantities were normalized using Ribogreen as described in other examples herein. A “−” or “+” designation indicates a decrease or increase of STAT 3 mRNA expression, respectively, relative to untreated control cells.

[3] = test system: Human STAT3 mRNA; test: Inhibition of human STAT3 mRNA levels in A549 cells, 75 nM, real-time PCR (Table 13); settings: 75 nM oligonucleotide with LIPOFECTIN, real-time PCR PPS 199, percent inhibition relative to untreated control cells, average of 2 experiments
Outline: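 A549 cells at 65–75% confluency were transfected in duplicate with 75 nM oligonucleotide plus […] Lipofectin for 4–7 h at 37° C and harvested 16–24 h later. STAT3 mRNA was quantified by real-time RT-PCR with primer-probe set PPS 199 and normalized to RiboGreen total RNA. Inhibition is relative to untreated controls.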

Substance | % Inhib (inhibition of human STAT 3 mRNA levels) [3] | further results
116847 (antisense CTGCTAGCCTCTGGATTTGA; all phosphorothioate, sugars by position and methylation of C not given here; 2'-MOE wings and deoxy gap) [compound 116847] | – | Percent change of STAT3 expression using PPS 199 ([1]; 18.75 nM oligonucleotide): +7%; Percent change of STAT3 expression using PPS 199 ([1]; 37.5 nM oligonucleotide): +4%; Percent change of STAT3 expression using PPS 199 ([1]; 75 nM oligonucleotide): +8%; Percent change of STAT3 expression using PPS 199 ([1]; 150 nM oligonucleotide): +5%; Percent change of STAT3 expression using PPS 2033 ([2]; 18.75 nM oligonucleotide): +45%; Percent change of STAT3 expression using PPS 2033 ([2]; 37.5 nM oligonucleotide): +33%; Percent change of STAT3 expression using PPS 2033 ([2]; 75 nM oligonucleotide): +22%; Percent change of STAT3 expression using PPS 2033 ([2]; 150 nM oligonucleotide): −2%
337259 (antisense e[5mC]*e[5mC]*eA*eT*e[5mC]*d[5mC]*dT*dG*d[5mC]*dT*dA*dA*dA*dA*dT*e[5mC]*eA*eG*eG*eG) [compound 337259] | 58% | –
337328 (antisense e[5mC]*eA*eT*eG*eT*dG*dA*dT*d[5mC]*dT*dG*dA*d[5mC]*dA*d[5mC]*e[5mC]*e[5mC]*eT*eG*eA) [compound 337328] | 85% | –
337370 (antisense eT*eG*e[5mC]*eA*eT*dT*dT*dA*dG*dA*dT*dA*dA*dA*dA*eG*e[5mC]*eA*eG*eA) [compound 337370] | 78% | –
337271 (antisense eG*eT*eG*eA*eT*dT*d[5mC]*dT*dT*d[5mC]*d[5mC]*d[5mC]*dA*d[5mC]*dA*eG*eG*e[5mC]*eA*e[5mC]) [compound 337271] | 85% | –
337249 (antisense eT*eT*eG*eG*eG*d[5mC]*d[5mC]*dA*dT*d[5mC]*d[5mC]*dT*dG*d[5mC]*dT*eA*eA*eA*eA*eT) [compound 337249] | 48% | –
337334 (antisense e[5mC]*e[5mC]*e[5mC]*eA*eG*dA*dA*dG*dG*dA*dG*dA*dA*dG*d[5mC]*e[5mC]*e[5mC]*eT*eT*eG) [compound 337334] | 85% | –
337255 (antisense eG*e[5mC]*e[5mC]*eT*eG*dT*d[5mC]*d[5mC]*dA*dG*dG*dA*dT*d[5mC]*d[5mC]*eG*eG*eT*eT*eG) [compound 337255] | 75% | –
337363 (antisense eA*eA*e[5mC]*eT*eG*d[5mC]*d[5mC]*d[5mC]*dT*d[5mC]*d[5mC]*dT*dG*d[5mC]*dT*eG*eA*eG*eG*eG) [compound 337363] | 63% | –
337313 (antisense eA*eG*eG*eT*eG*dA*dT*d[5mC]*dA*dG*dG*dT*dG*d[5mC]*dA*eG*e[5mC]*eT*e[5mC]*e[5mC]) [compound 337313] | 61% | –
337362 (antisense eA*eT*eT*eT*e[5mC]*d[5mC]*dA*dA*dA*d[5mC]*dT*dG*d[5mC]*dA*dT*e[5mC]*eA*eA*eT*eG) [compound 337362] | 69% | –
337300 (antisense e[5mC]*e[5mC]*eT*eT*eT*dG*dT*dA*dG*dG*dA*dA*dA*d[5mC]*dT*eT*eT*eT*eT*eG) [compound 337300] | 23% | –
337274 (antisense eT*eG*eA*eA*eG*dG*dT*dG*d[5mC]*dT*dG*d[5mC]*dT*d[5mC]*d[5mC]*eA*eG*e[5mC]*eA*eT) [compound 337274] | 74% | –
337258 (antisense eT*e[5mC]*e[5mC]*eG*eG*d[5mC]*dA*dG*dA*dG*dG*d[5mC]*d[5mC]*dG*dA*eG*eA*eG*eG*e[5mC]) [compound 337258] | 56% | –
337382 (antisense eG*eG*e[5mC]*eT*eT*dA*dG*dA*dT*dA*dG*dT*d[5mC]*d[5mC]*dT*eA*eT*e[5mC]*eT*eT) [compound 337382] | 84% | –
337342 (antisense eT*eT*eA*eT*eA*dG*d[5mC]*d[5mC]*d[5mC]*dA*dT*dG*dA*dT*dG*eA*eT*eT*eT*e[5mC]) [compound 337342] | 81% | –
337343 (antisense eT*eG*eA*eT*e[5mC]*dT*dT*dA*dT*dA*dG*d[5mC]*d[5mC]*d[5mC]*dA*eT*eG*eA*eT*eG) [compound 337343] | 84% | –
337379 (antisense eG*eT*eA*eT*eG*dT*dA*dG*d[5mC]*dT*dA*dT*dA*dG*dG*eT*eG*eG*e[5mC]*e[5mC]) [compound 337379] | 71% | –
337304 (antisense eT*eT*eT*eT*eA*dA*dG*d[5mC]*dT*dG*dA*dT*dA*dA*dT*eT*e[5mC]*eA*eA*e[5mC]) [compound 337304] | 15% | –
337277 (antisense eA*eA*eG*eT*e[5mC]*dA*dT*d[5mC]*d[5mC]*dT*dG*dG*dA*dG*dA*eT*eT*e[5mC]*eT*e[5mC]) [compound 337277] | 79% | –
337302 (antisense eT*eT*eG*eA*e[5mC]*d[5mC]*dA*dG*d[5mC]*dA*dA*d[5mC]*d[5mC]*dT*dG*eA*e[5mC]*eT*eT*eT) [compound 337302] | 61% | –
337252 (antisense e[5mC]*eT*eG*eA*eA*d[5mC]*dT*dT*dA*d[5mC]*d[5mC]*d[5mC]*dT*d[5mC]*dT*eG*eA*eG*eA*eG) [compound 337252] | 60% | –
337306 (antisense eG*e[5mC]*eA*e[5mC]*eA*d[5mC]*dT*dT*dT*dA*dA*dT*dT*dT*dT*eA*eA*eG*e[5mC]*eT) [compound 337306] | 77% | –
337374 (antisense eA*eG*eA*e[5mC]*eA*dT*dT*dT*d[5mC]*d[5mC]*dT*dT*dT*dT*dT*e[5mC]*eT*e[5mC]*e[5mC]*e[5mC]) [compound 337374] | 67% | –
337291 (antisense e[5mC]*eT*eT*e[5mC]*eT*d[5mC]*d[5mC]*dG*d[5mC]*dA*dT*d[5mC]*dT*dG*dG*eT*e[5mC]*e[5mC]*eA*eG) [compound 337291] | 66% | –
337368 (antisense eT*eT*eT*eT*eT*dA*dA*dA*dA*dG*dT*dG*d[5mC]*d[5mC]*d[5mC]*eA*eG*eA*eT*eT) [compound 337368] | 59% | –
337267 (antisense eA*eG*eA*eA*eA*d[5mC]*dT*dG*d[5mC]*dT*dT*dG*dA*dT*dT*e[5mC]*eT*eT*e[5mC]*eG) [compound 337267] | 62% | –
337278 (antisense eA*eA*eT*e[5mC]*eA*dA*dA*dG*dT*d[5mC]*dA*dT*d[5mC]*d[5mC]*dT*eG*eG*eA*eG*eA) [compound 337278] | 69% | –
337347 (antisense eG*e[5mC]*e[5mC]*eT*e[5mC]*d[5mC]*dT*d[5mC]*d[5mC]*dT*dT*dG*dG*dG*dA*eA*eT*eG*eT*e[5mC]) [compound 337347] | 88% | –
